Our source for the inhibition of growth and pest or weed control values is US20250049036A1 (priority 2021, published 2025).

In one test the test system is Pyricularia oryzae. The experiment in a line: microbe, parasite or virus in culture. The format is cell-based. Conditions: 168 h, read-out: control compared to the untreated check.
The subject of a further test is Phakopsora pachyrhizi. Nature of the test: Phakopsora pachyrhizi test on soybean, preventive, greenhouse. To be noted: preventive spray on soybean, inoculated one day after treatment, read-out: control (efficacy, disease severity) compared to the untreated check. Type of test: in vivo. The protocol:
The respective compound was dissolved in 2% dimethyl sulfoxide/acetone and then mixed with water containing emulsifier to the calibrated spray volume of 30 mL. Each spray solution was poured into a spray bottle for further application.
To test the preventive activity of a compound, healthy young soybean plants, raised in the greenhouse, were sprayed with the active compound preparation at the stated application rate inside the spray cabinets using hollow cone nozzles. One day after treatment, the plants were inoculated with a conidial suspension containing 2×10^5 Phakopsora pachyrhizi inoculum. The inoculated plants were then kept in a greenhouse chamber at 22-24° C. temperature and 80-90% relative humidity for disease expression.

A further test has as its system Parastagonospora nodorum. Nature of the test: Parastagonospora nodorum (PARANO) spore growth inhibition in liquid medium, 96-well microtiter plate, OD 600. Type of test: cell-based. To be noted: spore suspension in PDB liquid medium, 18° C., 5-6 days, OD at 600, read-out: control compared to the untreated check. How it is done: Potato dextrose (PDB) liquid medium (Difco) containing a PARANO (10^5 spores/ml) spore suspension was prepared. For the inhibition assay, each test compound was solved in dimethyl sulfoxide. 100 μl of the test compound in media-solution was added to a 96-well microtiter plate, consequently, the same volume (100 μl) of spore suspension was added to the well making the final test concentrations and the plate was incubated at 18° C. for 5-6 days. The growth inhibition was evaluated by measuring the OD at 600. Percent inhibition was calculated with the below formula: […]

Molecules are shown by their SMILES. A value given as a limit tells only on which side of the number the result lay.

For the compound `Cc1ccccc1C(=O)OCC(C)(C)NC(=O)c1cnc2c(c1)c(Br)cn2C` [Compound 185, 2-(3-bromo-1-methyl-1H-pyrrolo[2,3-b]pyridine-5-carboxamido)-2-methylpropyl 2-methylbenzoate], the inhibition of growth at 300 ppm in the test on Pyricularia oryzae was at least 70%. Regarding `C=CCC(C)(Cc1ccccc1F)NC(=O)c1cnc2ccsc2c1` (stereo not shown) [Compound 134, N-(1-(2-fluorophenyl)-2-methylpent-4-en-2-yl)thieno[3,2-b] pyridine-6-carboxamide], in the test on Phakopsora pachyrhizi, the pest or weed control at 500 ppm was at least 70%. For the compound `Cc1ccc(C)c(COCC(C)(C)NC(=O)c2cnc3c(ccn3C)c2)c1` [Compound 227, N-(1-((2,5-dimethylbenzyl)oxy)-2-methylpropan-2-yl)-1-methyl-1H-pyrrolo[2,3-b]pyridine-5-carboxamide], in the test on Parastagonospora nodorum, the inhibition of growth at 300 ppm was at least 70%. Same read-out and setting: for `CC(C)(COc1ccnc(Cl)c1)NC(=O)c1cnc2ccsc2c1` [Compound 205, N-(1-((2-chloropyridin-4-yl)oxy)-2-methylpropan-2-yl)thieno[3,2-b] pyridine-6-carboxamide] the value was at least 70%; for `Cc1ccc(F)cc1C(O)C(C)(C)NC(=O)c1cnc2c(c1)c(Br)cn2C` (stereo not shown) [Compound 135, 3-bromo-N-(1-(5-fluoro-2-methylphenyl)-1-hydroxy-2-methylpropan-2-yl)-1-methyl-1H-pyrrolo[2,3-b]pyridine-5-carboxamide], at least 70%. The same measure, in the same setting: for `Cn1ccc2cc(C(=O)NC(C)(C)Cc3ccc(C(C)(C)C)cc3)cnc21` [Compound 16, N-(1-(4-(tert-butyl)phenyl)-2-methylpropan-2-yl)-1-methyl-1H-pyrrolo[2,3-b]pyridine-5-carboxamide] the value was at least 70%. For the compound `C=C(C)CC(C)(Cc1ccccc1F)NC(=O)c1cnc2c(c1)c(Br)cn2C` (stereo not shown) [Compound 142, 3-bromo-N-(1-(2-fluorophenyl)-2,4-dimethylpent-4-en-2-yl)-1-methyl-1H-pyrrolo[2,3-b]pyridine-5-carboxamide], in the test on Phakopsora pachyrhizi, the pest or weed control at 500 ppm was at least 70%. Still for that read-out and setting: for `Cn1cc(Cl)c2cc(C(=O)NC3Cc4ccccc4C3)cnc21` [Compound 137, 3-chloro-N-(2,3-dihydro-1H-inden-2-yl)-1-methyl-1H-pyrrolo[2,3-b]pyridine-5-carboxamide] the value was at least 70%. Still for that read-out and setting: for `Cc1nc2[nH]ccc2cc1C(=O)NC(C)(C)Cc1ccc(F)cc1` [Compound 94, N-(1-(4-fluorophenyl)-2-methylpropan-2-yl)-6-methyl-1H-pyrrolo[2,3-b]pyridine-5-carboxamide] the value was at least 70%; for `Cc1cccc(CC(NC(=O)c2cnc3[nH]ccc3c2)C(C)(C)O)c1` (stereo not shown) [Compound 104, N-(3-hydroxy-3-methyl-1-(m-tolyl)butan-2-yl)-1H-pyrrolo[2,3-b]pyridine-5-carboxamide], at least 70%. In the case of `COc1nc2c(cc1C(=O)NC(C)(C)COc1ccnc(Cl)c1)CCC2` [Compound 243, N-(1-((2-chloropyridin-4-yl)oxy)-2-methylpropan-2-yl)-2-methoxy-6,7-dihydro-5H-cyclopenta[b]pyridine-3-carboxamide], the inhibition of growth at 300 ppm in the test on Parastagonospora nodorum is at least 70%. As for `Cn1cc(Cl)c2cc(C(=O)NC(C)(C)COc3ccnc(Cl)c3)cnc21` [Compound 220, 3-chloro-N-(1-((2-chloropyridin-4-yl)oxy)-2-methylpropan-2-yl)-1-methyl-1H-pyrrolo[2,3-b]pyridine-5-carboxamide], the inhibition of growth at 300 ppm in the test on Pyricularia oryzae was at least 70%.

For `Cn1ccc2cc(C(=O)NC(C)(C)Cc3ccccc3Cl)cnc21` [Compound 17, N-(1-(2-chlorophenyl)-2-methylpropan-2-yl)-1-methyl-1H-pyrrolo[2,3-b]pyridine-5-carboxamide], in the test with Parastagonospora nodorum, the inhibition of growth at 300 ppm was at least 70%. `CC(C)(Cc1ccccc1)NC(=O)c1cc2c(nc1Cl)CCC2` [Compound 210, 2-chloro-N-(2-methyl-1-phenylpropan-2-yl)-6,7-dihydro-5H-cyclopenta[b]pyridine-3-carboxamide]: in the test on Parastagonospora nodorum, the inhibition of growth at 300 ppm is at least 70%. On the same count and under the same terms, for `Cn1cc(C2CC2)c2cc(C(=O)NC(C)(C)Cc3ccccc3F)cnc21` [Compound 60, 3-cyclopropyl-N-(1-(2-fluorophenyl)-2-methylpropan-2-yl)-1-methyl-1H-pyrrolo[2,3-b]pyridine-5-carboxamide] the value was at least 70%; for `Cc1cc(F)ccc1C(O)C(C)(C)NC(=O)c1cnc2ccsc2c1` (stereo not shown) [Compound 173, N-(1-(4-fluoro-2-methylphenyl)-1-hydroxy-2-methylpropan-2-yl)thieno[3,2-b] pyridine-6-carboxamide], at least 70%. Still for that read-out and setting: for `CON(C(=O)c1cnc2c(c1)CCC2)C(C)Cc1ccccc1F` (stereo not shown) [Compound 253, N-(1-(2-fluorophenyl)propan-2-yl)-N-methoxy-6,7-dihydro-5H-cyclopenta[b]pyridine-3-carboxamide] the value was at least 70%. With `Cn1cc(Cl)c2cc(C(=O)NC(C)(C)COCc3cc(F)ccc3Cl)cnc21` [Compound 214, 3-chloro-N-(1-((2-chloro-5-fluorobenzyl)oxy)-2-methylpropan-2-yl)-1-methyl-1H-pyrrolo[2,3-b]pyridine-5-carboxamide], the inhibition of growth at 300 ppm in the test with Pyricularia oryzae is at least 70%. Regarding `C=C(C)CC(C)(COc1ccccc1F)NC(=O)c1cnc2c(c1)c(Br)cn2C` (stereo not shown) [Compound 176, 3-bromo-N-(1-(2-fluorophenoxy)-2,4-dimethylpent-4-en-2-yl)-1-methyl-1H-pyrrolo[2,3-b]pyridine-5-carboxamide], the inhibition of growth at 300 ppm with Pyricularia oryzae and in the test with Parastagonospora nodorum was at least 70% throughout. In the case of `C=C(C)CC(C)(COc1ccccc1F)NC(=O)c1cnc2c(c1)c(Cl)cn2C` (stereo not shown) [Compound 179], in the test on Parastagonospora nodorum, the inhibition of growth at 300 ppm was at least 70%. Same read-out and setting: for `COc1nc2c(cc1C(=O)NC(C)(C)Cc1ccccc1)CCC2` [Compound 217, 2-methoxy-N-(2-methyl-1-phenylpropan-2-yl)-6,7-dihydro-5H-cyclopenta[b]pyridine-3-carboxamide] the value was at least 70%. As to `Cn1cc(Cl)c2cc(C(=O)NC3(c4cc(Cl)cc(Cl)c4)CC3)cnc21` [Compound 140, 3-chloro-N-(1-(3,5-dichlorophenyl)cyclopropyl)-1-methyl-1H-pyrrolo[2,3-b]pyridine-5-carboxamide], the pest or weed control at 500 ppm in the test on Phakopsora pachyrhizi is at least 70%. Regarding `COc1nc2[nH]ccc2cc1C(=O)NC(C)(C)Cc1ccccc1` [Compound 88, 6-methoxy-N-(2-methyl-1-phenylpropan-2-yl)-1H-pyrrolo[2,3-b] pyridine-5-carboxamide], the pest or weed control at 500 ppm in the test with Phakopsora pachyrhizi was at least 70%. For the compound `CCC(O)(CC)C(NC(=O)c1cnc2c(c1)c(Cl)cn2C)c1ccccc1` (stereo not shown) [Compound 138, 3-chloro-N-(2-ethyl-2-hydroxy-1-phenylbutyl)-1-methyl-1H-pyrrolo[2,3-b] pyridine-5-carboxamide], the pest or weed control at 500 ppm with Phakopsora pachyrhizi was at least 70%. In the case of `Cc1ccc(COCC(C)(C)NC(=O)c2cnc3ccsc3c2)c(C)c1` [Compound 200, N-(1-((2,4-dimethylbenzyl)oxy)-2-methylpropan-2-yl)thieno[3,2-b] pyridine-6-carboxamide], the inhibition of growth at 300 ppm with Parastagonospora nodorum was at least 70%. As for `Cn1ccc2cc(C(=O)NC(C)(C)Cc3cccc(Cl)c3)cnc21` [Compound 22, N-(1-(3-chlorophenyl)-2-methylpropan-2-yl)-1-methyl-1H-pyrrolo[2,3-b]pyridine-5-carboxamide], the pest or weed control at 500 ppm in the test on Phakopsora pachyrhizi was at least 70%. The same measure, in the same setting: for `CC(c1ccccc1)C(C)(C)NC(=O)c1cnc2c(c1)c(Cl)cn2C` (stereo not shown) [Compound 87, 3-chloro-1-methyl-N-(2-methyl-3-phenylbutan-2-yl)-1H-pyrrolo[2,3-b]pyridine-5-carboxamide] the value was at least 70%; for `Cc1nc2[nH]ccc2cc1C(=O)NC(C)(C)Cc1ccccc1` [Compound 93, 6-methyl-N-(2-methyl-1-phenylpropan-2-yl)-1H-pyrrolo[2,3-b] pyridine-5-carboxamide], at least 70%. In the case of `Cn1cc(Br)c2cc(C(=O)NC(C)(C)COC(=O)c3ccccc3C(F)(F)F)cnc21` [Compound 180, 2-(3-bromo-1-methyl-1H-pyrrolo[2,3-b]pyridine-5-carboxamido)-2-methylpropyl 2-(trifluoromethyl)benzoate], in the test on Pyricularia oryzae, the inhibition of growth at 300 ppm is at least 70%. On to `CC(C)c1ccc(CC(C)(C)NC(=O)c2cnc3c(ccn3C)c2)cc1` [Compound 18, N-(1-(4-isopropylphenyl)-2-methylpropan-2-yl)-1-methyl-1H-pyrrolo[2,3-b]pyridine-5-carboxamide], for which, in the test with Parastagonospora nodorum, the inhibition of growth at 300 ppm was at least 70%. Still for that read-out and setting: for `COc1nc2c(cc1C(=O)NC1(Cc3ccccc3)CC1)CCC2` [Compound 245, N-(1-benzylcyclopropyl)-2-methoxy-6,7-dihydro-5H-cyclopenta[b]pyridine-3-carboxamide] the value was at least 70%.

As for `O=C(NC1(C(F)(F)F)CC1)c1cnc2ccsc2c1` [Compound 108, N-(1-(trifluoromethyl)cyclopropyl)thieno [3,2-b]pyridine-6-carboxamide], the inhibition of growth at 300 ppm in the test with Pyricularia oryzae and with Parastagonospora nodorum was at least 70% each time.
